Measurements taken from patent publication US6699883B1, “Pyrroloimidazole derivatives and their use as medicaments” (Morphochem AG, priority 1999, dated 2004).
Values belong to the molecule of their own block, whether it stands above or below them.

Experiments:
Type in all cases: cell-based
Staph. aureus = assay: Inhibition test (microdilution assay), inhibition of bacterial growth; settings: Staphylococcus aureus; for inhibition at 100 µM: c = 100 μM
Description: (§1) Inhibition Test Culture media used: Müller-Hinton broth Caso agar plates Test method: Microdilution assay The test organisms are cultured overnight in […]-Honton broth at 35° C. +/-2° C. The suspension of organisms is centrifuged (5000 rev./min, 4° C.); the pellet is resuspended in fresh medium and incubated for a further 2 h. The pellet is then resuspended in 0.9% NaCl solution and the number of cells is adjusted to about 10^8 CFU/ml using standard curves. The resulting suspension is then diluted with Müller-Hinton broth to about 10^4 CFU/ml(=inoculum). Starting from the inoculum, a determination of the number of organisms is carried out by spiralling out (2×0.1 ml) a suitable dilution stage onto CASO agar plates. Test procedure: Specific concentrations of the potential inhibitors are dispensed into a 96-well microtitre assay plate, wells A1-H1remaining empty. The wells of the microtitre assay plates are inoculated with the adjusted suspension of organisms. Wells A1-H1serve as growth controls. Immediately after inoculation and after incubation of the plates for 24 h and 48 h, they are measured in a plate reader (Biotek EL 311) at 550 nm. From the crude data, the inhibition of bacterial and fungal growth is calculated in percent.

Strept. pneumoniae = assay: as above; settings: Streptococcus pneumoniae; c = 100 μM
Description: as §1

Bac. subtilis = assay: as above; settings: Bacillus subtilis; for inhibition at 100 µM: c = 100 μM
Description: as §1

A549 = assay: Assay 1: cell growth by acid phosphatase activity; settings: Homo sapiens; for GI50: A549, acid phosphatase, substance 0.1-100 μM, 48 h and 96 h, read-out: Cell proliferation GI50: A549; for inhibition at up to 100 µM: A549, printed beside GI50 >100 μM, concentration not given, read-out: Cell proliferation: A549, % inhibition
Description: (§2) Assay 1 Measurement of cell growth by determination of the activity of the intracellular enzyme acid phosphatase. The added substrate p-nitrophenyl phosphate is converted by acid phosphatase into p-nitrophenol, which absorbs light at 405 nm, the intensity of the yellow coloration being proportional to the number of cells. Incubation of the cell lines HEPG-2 and A549 together with the substance (0.1-100 μM) was carried out for 48 h and 96 h at 37° C. and 5% CO2.

Candida albicans = assay: Inhibition test (microdilution assay), inhibition of fungal growth; settings: read-out: Inhibition of bacterial growth: Candida albicans; for inhibition at 100 µM: c = 100 μM
Description: as §1

HepG2 = assay: Assay 1: cell growth by acid phosphatase activity; settings: Homo sapiens; for GI50: HepG2, acid phosphatase, substance 0.1-100 μM, 48 h and 96 h, read-out: Cell proliferation GI50: HepG2; for inhibition at up to 100 µM: HepG2, printed beside GI50 >100 μM, concentration not given, read-out: Cell proliferation: HepG2, % inhibition
Description: as §2

Compound: Cc1[nH]c2ccccc2c1-c1cncn1C1CCN(Cc2ccccc2)CC1 [Example 2]
inhibition at 100 µM (Staph. aureus): 100%
inhibition at 100 µM (Strept. pneumoniae): 90%
inhibition at 100 µM (Bac. subtilis): 100%
GI50 (A549): > 100 µM
inhibition at up to 100 µM (A549): 12%
GI50 (HepG2): > 100 µM
inhibition at up to 100 µM (HepG2): 1%
inhibition at 100 µM (Candida albicans): 60%

Compound: Cc1[nH]c2ccccc2c1-c1cncn1C1CCCc2ccccc21 (stereo not shown) [Example 7]
inhibition at 100 µM (Staph. aureus): 40%
inhibition at 100 µM (Strept. pneumoniae): 0%
inhibition at 100 µM (Bac. subtilis): 76%
GI50 (A549): > 100 µM
inhibition at up to 100 µM (A549): 0%
GI50 (HepG2): > 100 µM
inhibition at up to 100 µM (HepG2): 0%
inhibition at 100 µM (Candida albicans): 0%

Compound: Cc1[nH]c2ccccc2c1-c1cncn1CCNC(C)C [Example 8]
inhibition at 100 µM (Staph. aureus): 82%
inhibition at 100 µM (Strept. pneumoniae): 0%
inhibition at 100 µM (Bac. subtilis): 39%
GI50 (A549): > 100 µM
inhibition at up to 100 µM (A549): 10%
GI50 (HepG2): > 100 µM
inhibition at up to 100 µM (HepG2): 0%
inhibition at 100 µM (Candida albicans): 0%

Compound: COc1ccc2[nH]cc(-c3cncn3CCc3ccc(O)cc3)c2c1 [Example 9]
inhibition at 100 µM (Staph. aureus): 25%
inhibition at 100 µM (Strept. pneumoniae): 85%
inhibition at 100 µM (Bac. subtilis): 38%
GI50 (A549): > 100 µM
inhibition at up to 100 µM (A549): 31%
GI50 (HepG2): > 100 µM
inhibition at up to 100 µM (HepG2): 14%
inhibition at 100 µM (Candida albicans): 0%

Compound: Fc1ccc(-c2ncn(C3CCCc4ccccc43)c2-c2c[nH]c3cnc(OCc4ccccc4)cc23)cc1 (stereo not shown) [Example 11]
inhibition at 50 µM (Staph. aureus; c = 50 μM): 60%
inhibition at 50 µM (Bac. subtilis; c = 50 μM): 80%
inhibition at 50 µM (Candida albicans; c = 50 μM): 100%

Compound: c1ccc(COc2cc3c(-c4cncn4C4CCc5ccccc54)c[nH]c3cn2)cc1 (stereo not shown) [Example 12]
inhibition at 12.5 µM (Staph. aureus; c = 12.5 μM): 80%
inhibition at 25 µM (Bac. subtilis; c = 25 μM): 100%
inhibition at 100 µM (Candida albicans): 60%

Compound: O[C@@H]1Cc2ccccc2C1n1cncc1-c1c[nH]c2cnc(OCc3ccccc3)cc12 (stereo partly shown) [Example 13]
inhibition at 100 µM (Staph. aureus): 90%
inhibition at 100 µM (Bac. subtilis): 90%
inhibition at 200 µM (Candida albicans; c = 200 μM): 90%

Now from value to molecule, other results behind:

GI50 (A549): > 100 µM
Compound: c1ccc(COc2cc3c(-c4cncn4C4CCCc5ccccc54)c[nH]c3cn2)cc1 (stereo not shown) [Example 1]
inhibition at 100 µM (Staph. aureus): 100%
inhibition at 100 µM (Strept. pneumoniae): 100%
inhibition at 100 µM (Bac. subtilis): 100%
inhibition at up to 100 µM (A549): 22%
inhibition at 100 µM (Candida albicans): 0%

GI50 (A549): > 100 µM
GI50 (HepG2): > 100 µM
Compound: c1ccc(CN2CCC(n3cncc3-c3c[nH]c4ccccc34)CC2)cc1 [Example 3]
inhibition at 100 µM (Staph. aureus): 100%
inhibition at 100 µM (Strept. pneumoniae): 80%
inhibition at 100 µM (Bac. subtilis): 100%
inhibition at up to 100 µM (A549): 26%
inhibition at up to 100 µM (HepG2): 48%
inhibition at 100 µM (Candida albicans): 60%

GI50 (A549): > 100 µM
GI50 (HepG2): > 100 µM
Compound: c1ccc(COc2cc3c(-c4cncn4C4CCN(Cc5ccccc5)CC4)c[nH]c3cn2)cc1 [Example 4]
inhibition at 100 µM (Staph. aureus): 100%
inhibition at 100 µM (Strept. pneumoniae): 90%
inhibition at 100 µM (Bac. subtilis): 100%
inhibition at up to 100 µM (A549): 41%
inhibition at up to 100 µM (HepG2): 65%
inhibition at 100 µM (Candida albicans): 70%

GI50 (A549): > 100 µM
GI50 (HepG2): > 100 µM
Compound: CC(C)CCn1cncc1-c1c[nH]c2cnc(OCc3ccccc3)cc12 [Example 5]
inhibition at 100 µM (Staph. aureus): 100%
inhibition at 100 µM (Strept. pneumoniae): 90%
inhibition at 100 µM (Bac. subtilis): 100%
inhibition at up to 100 µM (A549): 33%
inhibition at up to 100 µM (HepG2): 38%
inhibition at 100 µM (Candida albicans): 0%

GI50 (A549): > 100 µM
GI50 (HepG2): > 100 µM
Compound: c1ccc(COc2cc3c(-c4cncn4CCc4c[nH]c5ccccc45)c[nH]c3cn2)cc1 [Example 6]
inhibition at 100 µM (Staph. aureus): 85%
inhibition at 100 µM (Strept. pneumoniae): 10%
inhibition at 100 µM (Bac. subtilis): 10%
inhibition at up to 100 µM (A549): 19%
inhibition at up to 100 µM (HepG2): 17%
inhibition at 100 µM (Candida albicans): 0%
